Experimental data published in ChEMBL document CHEMBL1201862, “PubChem BioAssay data set” (2004).
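Method: 48-hour compound exposure of cells in 96-well plates, five concentrations, linear interpolation of endpoints. The concentration for 50% growth inhibition is given as GI50.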 Active and inactive are the calls of the source. Cut-off read from the data, not from the text of the source: active = GI50 up to about 1.1 µM and inactive = higher.

Columns and labels:
Assay in all cases: NCI-60 cell line screen, 48 h
[1] = test system: 786-0
[2] = test system: A549
[3] = test system: BT-549
[4] = test system: CAKI-1
[5] = test system: CCRF-CEM
[6] = test system: EKVX
[7] = test system: HOP-92
[8] = test system: HT-29
[9] = test system: KM12
[10] = test system: M14
[11] = test system: MOLT-4
[12] = test system: NCI-H23
[13] = test system: NCI-H460
[14] = test system: NCI-H522
[15] = test system: OVCAR-8
[16] = test system: PC-3
[17] = test system: SF-268
[18] = test system: UACC-257
[19] = test system: UO-31
[20] = test system: TK-10

Structure (SMILES): COc1ccc(OC)c2cc(Cc3ccc(N(C)C)cc3)c(=O)c(Cc3ccc(N(C)C)cc3)cc12
- GI50 [1]: 90.8 µM (inactive)
- GI50 [2]: 57 µM (inactive)
- GI50 [3]: > 100 µM (inactive)
- GI50 [4]: 61 µM (inactive)
- GI50 [5]: > 100 µM (inactive)
- GI50 [6]: > 100 µM (inactive)
- GI50 [7]: > 100 µM (inactive)
- GI50 [8]: > 100 µM (inactive)
- GI50 [9]: > 100 µM (inactive)
- GI50 [10]: > 100 µM (inactive)
- GI50 [11]: > 100 µM (inactive)
- GI50 [12]: > 100 µM (inactive)
- GI50 [13]: 55.6 µM (inactive)
- GI50 [14]: 20.7 µM (inactive)
- GI50 [15]: 32.9 µM (inactive)
- GI50 [16]: 62.1 µM (inactive)
- GI50 [17]: 46.7 µM (inactive)
- GI50 [18]: > 100 µM (inactive)
- GI50 [19]: > 100 µM (inactive)

Structure (SMILES): C#Cc1cc(Br)c(OC(=O)C(C)(C)C)c(-c2cc(C#C)cc(Br)c2OC(=O)C(C)(C)C)c1
- GI50 [1]: 41.5 µM (inactive)
- GI50 [2]: 31.8 µM (inactive)
- GI50 [3]: > 100 µM (inactive)
- GI50 [4]: 61.8 µM (inactive)
- GI50 [5]: 10.3 µM (inactive)
- GI50 [6]: 31.2 µM (inactive)
- GI50 [7]: 36.9 µM (inactive)
- GI50 [8]: 22.1 µM (inactive)
- GI50 [9]: 37.9 µM (inactive)
- GI50 [10]: 43.7 µM (inactive)
- GI50 [11]: 23 µM (inactive)
- GI50 [12]: 30.5 µM (inactive)
- GI50 [13]: 42.5 µM (inactive)
- GI50 [14]: 32.5 µM (inactive)
- GI50 [15]: 65.3 µM (inactive)
- GI50 [16]: 50.2 µM (inactive)
- GI50 [17]: 50 µM (inactive)
- GI50 [20]: > 100 µM (inactive)
- GI50 [18]: 36.1 µM (inactive)

Structure (SMILES): N#CCC(=O)c1cc(OCc2cc(OCc3ccc(Br)cc3)cc(OCc3ccc(Br)cc3)c2)cc(OCc2cc(OCc3ccc(Br)cc3)cc(OCc3ccc(Br)cc3)c2)c1
- GI50 [1]: > 100 µM (inactive)
- GI50 [2]: > 100 µM (inactive)
- GI50 [3]: > 100 µM (inactive)
- GI50 [4]: > 100 µM (inactive)
- GI50 [6]: > 100 µM (inactive)
- GI50 [7]: > 100 µM (inactive)
- GI50 [9]: > 100 µM (inactive)
- GI50 [10]: > 100 µM (inactive)
- GI50 [12]: > 100 µM (inactive)
- GI50 [13]: > 100 µM (inactive)
- GI50 [14]: > 100 µM (inactive)
- GI50 [16]: > 100 µM (inactive)
- GI50 [17]: > 100 µM (inactive)
- GI50 [20]: > 100 µM (inactive)
- GI50 [18]: > 100 µM (inactive)
- GI50 [19]: > 100 µM (inactive)

Structure (SMILES): CCOC(=O)/C=C(/C(=O)OCC)n1ccc(=O)n(Cc2cn(COCCOC(C)=O)nn2)c1=O
- GI50 [1]: 21.7 µM (inactive)
- GI50 [2]: > 100 µM (inactive)
- GI50 [3]: 16.4 µM (inactive)
- GI50 [4]: 4.74 µM (inactive)
- GI50 [5]: 2.14 µM (inactive)
- GI50 [6]: 16.9 µM (inactive)
- GI50 [7]: 1.53 µM (inactive)
- GI50 [8]: 18.1 µM (inactive)
- GI50 [9]: 15.5 µM (inactive)
- GI50 [11]: 17.3 µM (inactive)
- GI50 [12]: 20.7 µM (inactive)
- GI50 [13]: 15.6 µM (inactive)
- GI50 [14]: 4.54 µM (inactive)
- GI50 [15]: 16.4 µM (inactive)
- GI50 [16]: 35.4 µM (inactive)
- GI50 [17]: 18.2 µM (inactive)
- GI50 [20]: 16.8 µM (inactive)
- GI50 [18]: 19.3 µM (inactive)
- GI50 [19]: 18 µM (inactive)

Structure (SMILES): Fc1ccc(/N=C/C=C/Nc2ccc(F)cc2)cc1
- GI50 [1]: 4.3 µM (inactive)
- GI50 [2]: 8.67 µM (inactive)
- GI50 [3]: 14.1 µM (inactive)
- GI50 [4]: 12.7 µM (inactive)
- GI50 [5]: 4.67 µM (inactive)
- GI50 [6]: 12.9 µM (inactive)
- GI50 [7]: 17.6 µM (inactive)
- GI50 [8]: 5.35 µM (inactive)
- GI50 [9]: 3.31 µM (inactive)
- GI50 [10]: 0.137 µM (active)
- GI50 [11]: 12.9 µM (inactive)
- GI50 [12]: 15 µM (inactive)
- GI50 [13]: 6.19 µM (inactive)
- GI50 [14]: 13.5 µM (inactive)
- GI50 [15]: 12.9 µM (inactive)
- GI50 [16]: 8.91 µM (inactive)
- GI50 [17]: 13.4 µM (inactive)
- GI50 [18]: 13.5 µM (inactive)
- GI50 [19]: 6.73 µM (inactive)

Structure (SMILES): CCOC(=O)CN1CCNCCN(CC(=O)OCC)CCNCC1
- GI50 [1]: > 100 µM (inactive)
- GI50 [2]: > 100 µM (inactive)
- GI50 [3]: > 100 µM (inactive)
- GI50 [4]: > 100 µM (inactive)
- GI50 [5]: > 100 µM (inactive)
- GI50 [6]: > 100 µM (inactive)
- GI50 [7]: > 100 µM (inactive)
- GI50 [8]: 55.3 µM (inactive)
- GI50 [9]: > 100 µM (inactive)
- GI50 [11]: > 100 µM (inactive)
- GI50 [13]: 90.4 µM (inactive)
- GI50 [14]: > 100 µM (inactive)
- GI50 [15]: > 100 µM (inactive)
- GI50 [16]: > 100 µM (inactive)
- GI50 [20]: > 100 µM (inactive)
- GI50 [18]: > 100 µM (inactive)
- GI50 [19]: 52.6 µM (inactive)

Structure (SMILES): O=c1[nH][nH]c(=O)n1/N=C/c1ccccc1
- GI50 [1]: > 100 µM (inactive)
- GI50 [2]: > 100 µM (inactive)
- GI50 [3]: > 100 µM (inactive)
- GI50 [4]: > 100 µM (inactive)
- GI50 [5]: > 100 µM (inactive)
- GI50 [6]: > 100 µM (inactive)
- GI50 [7]: > 100 µM (inactive)
- GI50 [8]: > 100 µM (inactive)
- GI50 [9]: > 100 µM (inactive)
- GI50 [10]: > 100 µM (inactive)
- GI50 [11]: > 100 µM (inactive)
- GI50 [12]: > 100 µM (inactive)
- GI50 [13]: > 100 µM (inactive)
- GI50 [15]: > 100 µM (inactive)
- GI50 [16]: > 100 µM (inactive)
- GI50 [17]: > 100 µM (inactive)
- GI50 [20]: > 100 µM (inactive)
- GI50 [18]: > 100 µM (inactive)
- GI50 [19]: > 100 µM (inactive)
